According to patent EP3958980B1, “TARGETED NOVEL TRIAZOLOTHIADIAZINE DERIVATIVES FOR THE TREATMENT OF LUNG CANCER” (Anadolu Universitesi, priority 2020, dated 2021):
≈ marks a conversion by molar mass, not a printed value. Where “and” joins values, the source holds several entries; their conditions need not be identical. Equal entries are not always repeated.

Columns and labels:
[1] = system: kidney cancer (OU-31) cell line; parameters: concentration or dose not given beside the values; conditions: cited from earlier work
[2] = system: A549 cells; conditions: cited from earlier work
[3] = system: human colon epithelial (HT-29) cells; conditions: cited from earlier work
[4] = system: kidney fibroblast (BHK-21) cells; conditions: cited from earlier work
[5] = system: hepatocellular carcinoma (Hep3 B), human breast adenocarcinoma (MCF-7), human cervical carcinoma (HeLa); conditions: against all tested cancer cells; cited from earlier work
[6] = system: lung cancer (H157) cells; conditions: cited from earlier work
[7] = system: CCD-19Lu normal lung fibroblast cells; assay: MTT assay, in vitro cytotoxic activity on CCD-19Lu; format: cell-based; conditions: 24 hour incubation; for IC50: Homo sapiens, CCD 19Lu, read-out: IC50 values (µg/mL) CCDLul9 cell line
Description: (§1) The in vitro cytotoxic effects of the compounds were determined with the MTT assay. For this purpose, MTT test was performed using A549 and CCD-19Lu cell lines. After the cell lines used in the invention were centrifuged following taking them out from liquid nitrogen (-196 °C), the cells were cultured in a CO2 incubator comprising 5% CO2 at 37 °C in flasks containing 10% fetal bovine serum (FBS), where CCD-19Lu cells were cultured with Dulbecco's Modified Eagle's Medium (DMEM) and A549 cells were cultured with Roswell Park Memorial Institute (RPMI). The cells that reach the sufficient number for the assay, were seeded to 96 well plates such that 2×10^3 cells were placed in each well and at the same time, components at concentrations of 1-500 µg/mL were added to cells and they were incubated at 37 °C. At the end of the 24 hour incubation period, the MTT powder (5 mg/mL in 1 × phosphate buffered saline (PBS)) was added to each well (20 µL). After a 2-4 h period under the same conditions, the medium was removed from the plate and 100 µL of DMSO was added to each well to dissolve the dye and kept for 10 minutes. Then the plates were read at a wavelength of 540 nm using ELx808-IU Bio-Tek plate reader. The control cell viability which was not treated with the components was accepted to be 100% and the viability rates of the cells were expressed as %. […] According to the results obtained, the dose range was extended until the IC50 value was determined.
MTT assay is a frequently used method which measures the cytotoxic effects of the compounds on the cells by converting the yellow colored MTT stain into purple colored formazan crystals via the mitochondrial succinate dehydrogenase activity. In the cytotoxic activity tests of the compounds, A549 lung adenocarcinoma and CCDLu19 normal lung fibroblast cell lines were used.

[8] = system: A549 human lung adenocarcinoma cells; assay: MTT assay, in vitro cytotoxic activity on A549; format: cell-based; conditions: Homo sapiens, A549, 24 hour incubation, read-out: IC50 values (µg/mL) A549 cell line
Description: as §1, with “determined. MTT assay is a frequently used method which measures the cytotoxic effects of the compounds on the cells by converting the yellow colored MTT stain into purple colored formazan crystals via the mitochondrial succinate dehydrogenase activity. In the cytotoxic activity tests of the compounds, A549 lung adenocarcinoma and CCDLu19 normal lung fibroblast cell lines were used.” for “determined.”

[9] = system: Akt; assay: Akt colorimetric in cell ELISA in A549 cells; format: cell-based, human; conditions: 24 hours
Description: After 10.000 cells were seeded in the wells, they were kept in the incubator for 24 hours. […] Briefly, the medium was removed from the wells and 100 µL of 4% formaldehyde was added. The plate was incubated in a fume hood for 15 minutes. Formaldehyde was removed and the plate was washed twice with 1X […] (TBS) such as to be 100 µL/well. 1X TBS was removed and 100 µL 1X permeabilization solution was added to each well and it was kept at room temperature for 15 minutes. After the 1X permeabilization solution was removed, the wells were washed with 100 µL 1X TBS once. 1X TBS was removed and 100 µL quenching solution was added to each well and it was kept at room temperature for 20 minutes. Afterwards, this solution was removed. The plate was washed 1 time with 1X TBS and 100 µL blocking solution was added to the wells and it was kept at room temperature for 30 minutes. At the end of this period, the blocking solution was removed and 50 µL primary antibody was added to the wells. The plate was sealed with a cover and it was incubated overnight at 4 °C. The primary antibody was removed and the plate wells were washed 3 times with 100 µL 1X washing solution. After the washing solution was removed, 100 µL diluted horseradish peroxidase (HRP) conjugate was added and it was incubated at room temperature for 30 minutes. Later on this conjugate was removed and 100 µL 3,3',5,5'-tetramethylbenzidine (TMB) […] was added to each well and the absorbance values were read at 450 nm for 30 minutes. The experiment was carried out in triplicate. The values of the blank wells were subtracted from the values of the untreated control and treated cells. The Akt activity% was determined as the relative absorbance of treated versus untreated control cells.

O=C(CSc1nnc2n1N=C(c1ccc(Br)cc1)CS2)c1ccc(Br)cc1 [1-(4-bromophenyl)-2-((6-(4-bromophenyl)-7H-[1,2,4]triazolo[3,4-b][1,3,4]thiadiazine-3-yl)thio)ethanone]
growth [1]: 46.76% | inhibition [1]: 53.24% | growth [2]: 58.58% | inhibition [2]: 41.42%

O=C(CSc1nnc2n1N=C(c1ccc(F)cc1)CS2)c1ccc(F)cc1 [1-(4-fluorophenyl)-2-((6-(4-fluorophenyl)-7H-[1,2,4]triazolo[3,4-b][1,3,4]thiadiazine-3-yl)thio)ethanone]
growth [1]: 47.42% | inhibition [1]: 52.58%

CS(=O)(=O)c1ccc(Cc2nnc3n2N=C(c2ccccc2)CS3)cc1 [3-(4-(methylsulfonyl)benzyl)-6-phenyl-7H-[1,2,4]triazolo[3,4-b][1,3,4]thiadiazine]
IC50 [3]: 25 µM

Cc1ccc(C2=Nn3c(nnc3-c3ccncc3)SC2)cc1 [3-(pyridine-4-yl)-6-(p-tolyl)-7H-[1,2,4]triazolo[3,4-b][1,3,4]thiadiazine]
inhibition [4]: 72.6%

CCCCC/C=C\CC[C@H](O)CCCCCCCc1nnc2n1N=C(c1ccccc1)CS2 [3-[(8R,11Z)-8-hydroxyheptadec-11-enyl]-6-phenyl-7H-1,2,4-triazolo[3,4-b]-1,3,4-thiadiazine]
IC50 [5]: < 8.83 µM

CCCCCC[C@@H](O)C/C=C\CCCCCCCc1nnc2n1N=C(c1ccccc1)CS2 [3-[(8Z,11R)-11-hydroxyheptadec-8-enyl]-6-phenyl-7H-1,2,4-triazolo[3,4-b]-1,3,4-thiadiazine]
IC50 [5]: < 8.83 µM

Clc1ccc(C2=Nn3c(nnc3-c3cccnc3)SC2)cc1Cl [6-(3,4-Dichlorophenyl)-3-(pyridine-3-yl)-7H-[1,2,4]triazolo[3,4-b][1,3,4]thiadiazine]
IC50 [6]: 0.96 ± 0.43 µM

COc1cccc(C2=Nn3c(nnc3-c3ccncc3)SC2)c1 [6-(3-Methoxyphenyl)-3-(pyridine-4-yl)-7H-[1,2,4]triazolo[3,4-b][1,3,4]thiadiazine]
inhibition [4]: 73.3%

CS(=O)(=O)c1ccc(Cc2nnc3n2N=C(c2ccc(-c4ccccc4)cc2)CS3)cc1 [6-(biphenyl-4-yl)-3-(4-(methylsulfonyl)benzyl)-7H-[1,2,4]triazolo[3,4-b][1,3,4]thiadiazine]
IC50 [3]: 12.5 µM

c1ccc(C2=Nn3c(CCc4ccc5c(c4)OCO5)nnc3SC2)cc1 [Compound 1, 3-[2-(1,3-Benzodioxole-5-yl)ethyl]-6-phenyl-7H-[1,2,4]triazolo[3,4-b][1,3,4]thiadiazine]
IC50 [7]: < 3.9 µg/mL | IC50 [8]: 103 ± 11.5 µg/mL (≈ 284 µM)

O=[N+]([O-])c1ccc(C2=Nn3c(CCc4ccc5c(c4)OCO5)nnc3SC2)cc1 [Compound 2, 3-[2-(1,3-Benzodioxole-5-yl)ethyl]-6-(4-nitrophenyl)-7H-[1,2,4]triazolo[3,4-b][1,3,4]thiadiazine]
IC50 [7]: 3.93 ± 0.06 µg/mL (≈ 9.6 µM) | IC50 [8]: 380 ± 70.7 µg/mL (≈ 928 µM)

N#Cc1ccc(C2=Nn3c(CCc4ccc5c(c4)OCO5)nnc3SC2)cc1 [Compound 3, 3-[2-(1,3-Benzodioxole-5-yl)ethyl]-6-(4-cyanophenyl)-7H-[1,2,4]triazolo[3,4-b] [1,3,4]thiadiazine]
IC50 [7]: > 500 µg/mL | IC50 [8]: > 500 µg/mL

Fc1ccc(C2=Nn3c(CCc4ccc5c(c4)OCO5)nnc3SC2)cc1 [Compound 4, 3-[2-(1,3-Benzodioxole-5-yl)ethyl]-6-(4-fluorophenyl)-7H-[1,2,4]triazolo[3,4-b] [1,3,4]thiadiazine]
IC50 [7]: > 500 µg/mL | IC50 [8]: 325 ± 35.4 µg/mL (≈ 850 µM)

Clc1ccc(C2=Nn3c(CCc4ccc5c(c4)OCO5)nnc3SC2)cc1 [Compound 5, 3-[2-(1,3-Benzodioxole-5-yl)ethyl]-6-(4-chlorophenyl)-7H-[1,2,4]triazolo[3,4-b] [1,3,4]thiadiazine]
IC50 [7]: < 3.9 µg/mL | IC50 [8]: > 500 µg/mL

Brc1ccc(C2=Nn3c(CCc4ccc5c(c4)OCO5)nnc3SC2)cc1 [Compound 6, 3-[2-(1,3-Benzodioxole-5-yl)ethyl]-6-(4-bromophenyl)-7H-[1,2,4]triazolo[3,4-b] [1,3,4]thiadiazine]
IC50 [7]: < 3.9 µg/mL | IC50 [8]: 307 ± 58.6 µg/mL (≈ 692 µM)

COc1ccc(C2=Nn3c(CCc4ccc5c(c4)OCO5)nnc3SC2)cc1 [Compound 7, 3-[2-(1,3-Benzodioxole-5-yl)ethyl]-6-(4-methoxyphenyl)-7H-[1,2,4]triazolo[3,4-b] [1,3,4]thiadiazine]
IC50 [7]: 44.3 ± 1.15 µg/mL (≈ 112 µM) | IC50 [8]: 45.7 ± 5.51 µg/mL (≈ 116 µM)

Cc1ccc(C2=Nn3c(CCc4ccc5c(c4)OCO5)nnc3SC2)cc1 [Compound 8, 3-[2-(1,3-Benzodioxole-5-yl)ethyl]-6-(4-methylphenyl)-7H-[1,2,4] triazolo [3,4-b] [1,3,4]thiadiazine]
IC50 [7]: 14.7 ± 6.43 µg/mL (≈ 38.8 µM) | IC50 [8]: > 500 µg/mL

c1ccc2cc(C3=Nn4c(CCc5ccc6c(c5)OCO6)nnc4SC3)ccc2c1 [Compound 10, 3-[2-(1,3-Benzodioxole-5-yl)ethyl]-6-(naphthalene-2-yl)-7H-[1,2,4]triazolo [3,4-b][1,3,4]thiadiazine]
IC50 values (µg/mL) CCDLul9 cell line [7]: <3.90 µg/mL | IC50 [7]: < 3.9 µg/mL | IC50 [8]: 4.1 ± 0.14 µg/mL (≈ 9.89 µM)

Clc1cccc(C2=Nn3c(CCc4ccc5c(c4)OCO5)nnc3SC2)c1 [Compound 13, 3-[2-(1,3-Benzodioxole-5-yl)ethyl]-6-(3-chlorophenyl)-7H-[1,2,4]triazolo[3,4-b][1,3,4]thiadiazine]
IC50 [7]: > 500 µg/mL | IC50 [8]: > 500 µg/mL

c1csc(-c2ccc(C3=Nn4c(CCc5ccc6c(c5)OCO6)nnc4SC3)cc2)c1 [Compound 15, 3-[2-(1,3-Benzodioxole-5-yl)ethyl] -6-(4-(thiophen-2-yl)phenyl)-7H-[1,2,4] triazolo [3,4-b] [1,3,4]thiadiazine]
IC50 values (µg/mL) CCDLul9 cell line [7]: <3.90 µg/mL | IC50 [7]: < 3.9 µg/mL | IC50 [8]: 4 ± 0.2 µg/mL (≈ 8.96 µM)

CCn1c(-c2nonc2N)nc2c(C#CC(C)(C)O)ncc(OC[C@H]3CCCNC3)c21 [GSK690693, reference compound]
Akt Inhibition% ([9]; IC50/2 concentration (9: 2.88; 11: 0.37; 12: 0.40; 14: 1.32; GSK690693: 3.34; Cisplatin: 11.50 µg/mL)): 60.56±3.04% | Akt Inhibition% ([9]; IC50/4 concentration (9: 1.44; 11: 0.18; 12: 0.20; 14: 0.66; GSK690693: 1.69; Cisplatin: 5.75 µg/mL)): 59.23±9.77% | Akt Inhibition% ([9]; IC50 concentration (9: 5.75; 11: 0.73; 12: 0.80; 14: 2.63; GSK690693: 6.75; Cisplatin: 23.00 µg/mL)): 61.67% and 61.67±1.21% | IC50 [8]: 6.75 ± 1.06 µg/mL (≈ 15.9 µM)
